Results reported in US20250320209A1, “Salts and Solid Forms of Sonrotoclax Intermediate” (BeOne Medicines I GmbH, priority 2022, published 2025).

Key:
[1] = Salt formation of Compound 2 with seven acids in seven organic solvents: physical form obtained; assay type: physicochemical; conditions: for physical form of Compound 2 salt: 10 mL, acid 1.73 mmol; for physical form of the obtained salt: in certain organic solvents (summary of Table 1)
Protocol: In one example, Compound 2 (1.0 g, 1.73 mmol) in MTBE (10 mL) solution and oxalic acid (0.16 g, 1.73 mmol) was added dropwise. The reaction mixture was stirred for about 6 hours and filtered to obtain a wet cake of methyl 4-(2-{(2S)-2-[2-(propan-2-yl)phenyl]pyrrolidin-1-yl}-7-azaspiro[3.5]nonan-7-yl)-2-[(1H-pyrrolo[2,3-b]pyridin-5-yl)oxy]benzoate oxalate salt (Compound 3).
The other acids were used as the following amounts, D-(−)-tartaric (0.26 g, 1.73 mmol), p-toluenesulfonic acid (0.3 g, 1.73 mmol), D-DTTA (0.67 g, 1.73 mmol), Citric acid (0.33 g, 1.73 mmol), Malic acid (0.23 g, 1.73 mmol), Maleic acid (0.20 g, 1.73 mmol); and the other organic solvents were used with 10 mL volume.

[2] = Properties of the solid oxalate salt of Compound 2 as stated in text

Row | Compound | physical form of Compound 2 salt ([1]; solvent 2-MeTHF) | physical form of Compound 2 salt ([1]; solvent Acetone) | physical form of Compound 2 salt ([1]; solvent DCM) | physical form of Compound 2 salt ([1]; solvent EA) | physical form of Compound 2 salt ([1]; solvent IPAc) | physical form of Compound 2 salt ([1]; solvent MTBE) | physical form of Compound 2 salt ([1]; solvent MeOH) | hydroscopic property ([2]; solid (wet cake) obtained from MTBE) | stability ([2]; solid salt, no test described) | physical form of the obtained salt [1]
1 | Citric acid | oil | Clean | Clean | oil | moisture | moisture | Clean | – | – | –
2 | COC(=O)c1ccc(N2CCC3(CC2)CC(N2CCC[C@H]2c2ccccc2C(C)C)C3)cc1Oc1cnc2[nH]ccc2c1.O=C(O)C(=O)O [Compound 3, methyl 4-(2-{(2S)-2-[2-(propan-2-yl)phenyl]pyrrolidin-1-yl}-7-azaspiro[3.5]nonan-7-yl)-2-[(1H-pyrrolo[2,3-b]pyridin-5-yl)oxy]benzoate oxalate salt] | oil | Clean solution | Clean solution | oil | moisture | Fine solid | Clean solution | low | very good | solid form
3 | Cc1ccc(S(=O)(=O)O)cc1 [p-toluenesulfonic acid] | Clean solution | Clean solution | Clean solution | Clean solution | Clean solution | moisture absorption | Clean solution | – | – | –
4 | Malic acid | Clean solution | Clean solution | Clean solution | oil | oil | moisture | Clean solution | – | – | –
5 | Maleic acid | Clean solution | Clean solution | Clean solution | Clean solution | oil | moisture | Clean solution | – | – | –
6 | Cc1ccc(C(=O)O[C@H](C(=O)O)[C@H](OC(=O)c2ccc(C)cc2)C(=O)O)cc1 [D-DTTA] | Clean solution | Clean solution | Clean solution | Clean solution | oil | Fine solid | Clean solution | – | – | solid form
